Settings: 323.15 K, Liquid, Vibrating tube method

CCCCC(=O)OCC(COC(=O)CCCC)(COC(=O)CCCC)COC(=O)CCCC [pentaerythritol tetrapentanoate]
Settings	mass density [kg/m3]
2620 kPa	996.4
2660.6 kPa	996.5
2696.9 kPa	996.5
2718.7 kPa	996.6
2740.2 kPa	996.6
2766.8 kPa	996.6
2789.3 kPa	996.7
2812.2 kPa	996.6
2835.1 kPa	996.5
2863.3 kPa	996.6
2886.9 kPa	996.7
2911 kPa	996.7
2989.9 kPa	996.7
3015.4 kPa	996.6
3041 kPa	996.8
3072.2 kPa	996.8
3098.9 kPa	996.7
3127.4 kPa	996.8
3156.2 kPa	996.9
3188.1 kPa	996.9
3211.7 kPa	996.9
3262.5 kPa	996.8
3273.9 kPa	997
3286 kPa	997.1
3299.4 kPa	997
3310.7 kPa	996.9
3322.8 kPa	997
3337.8 kPa	996.9
3347.6 kPa	997
3361.4 kPa	997.1
3373 kPa	997
3399.5 kPa	997
3411.5 kPa	997.1
3423.8 kPa	997.1
3438.5 kPa	997.1
3453.3 kPa	997.1
3522.2 kPa	997
3637.3 kPa	997.2
3714.9 kPa	997.3
3733.1 kPa	997.2
3751.4 kPa	997.3
3769.8 kPa	997.4
3791.1 kPa	997.3
3809.5 kPa	997.4
3828.4 kPa	997.3
3846.7 kPa	997.3
3869.1 kPa	997.3
3887.6 kPa	997.3
3909.9 kPa	997.3
3929 kPa	997.5
3947.9 kPa	997.4
3967.4 kPa	997.4
3987.2 kPa	997.5
4010 kPa	997.4
4029.3 kPa	997.5
4049 kPa	997.5
4072.7 kPa	997.4
4092.3 kPa	997.5
4112.7 kPa	997.6
4137.3 kPa	997.5
4158.1 kPa	997.5
4179.1 kPa	997.6
4200.2 kPa	997.6
4225 kPa	997.6
4246.8 kPa	997.7
4268.4 kPa	997.5
4290.2 kPa	997.6
4316 kPa	997.7
4337.7 kPa	997.6
4359.8 kPa	997.7
4382.3 kPa	997.8
4409 kPa	997.7
4431.7 kPa	997.7
4454.9 kPa	997.7
4478.1 kPa	997.8
4506.5 kPa	997.9
4529.8 kPa	997.9
4554.2 kPa	997.9
4579 kPa	997.8
4607.9 kPa	998
4632.1 kPa	997.9
4657.2 kPa	998
4688.4 kPa	997.9
4714.7 kPa	997.9
4741.5 kPa	998
4773.2 kPa	998
4800.4 kPa	998
4827.4 kPa	998
4855.4 kPa	997.9
4889.5 kPa	998.1
4918.2 kPa	998.1
4946.4 kPa	998.1
4975.1 kPa	998.2
4978.1 kPa	998.3
4995.6 kPa	998.2
4997.5 kPa	998.3
5038.8 kPa	998.1
5039.2 kPa	998.3
5039.4 kPa	998.2
5040 kPa	998.2
5040.7 kPa	998.2
5041.6 kPa	998.2
5042.1 kPa	998.1
5042.6 kPa	998.2
5044 kPa	998.2
5052.3 kPa	998.3
5059.4 kPa	998.3
5066.5 kPa	998.4
5073.8 kPa	998.2
5082.4 kPa	998.2
5089.7 kPa	998.2
5097 kPa	998.3
5105.8 kPa	998.3
5113.1 kPa	998.3
5120.5 kPa	998.3
5128 kPa	998.3
5134.7 kPa	998.4
5142.3 kPa	998.3
5150.8 kPa	998.3
5158.4 kPa	998.2
5166.2 kPa	998.2
5174.9 kPa	998.3
5182.5 kPa	998.3
5189.9 kPa	998.3
5197.3 kPa	998.3
5206 kPa	998.3
5213.8 kPa	998.3
5221.7 kPa	998.3
5229.5 kPa	998.3
5238.5 kPa	998.5
5246.1 kPa	998.3
5254.1 kPa	998.4
5261.5 kPa	998.4
5270.5 kPa	998.3
5278.7 kPa	998.4
5287.8 kPa	998.4
5295.3 kPa	998.4
5303 kPa	998.5
5312.6 kPa	998.3
5320.7 kPa	998.4
5329.2 kPa	998.5
5336.8 kPa	998.3
5345.1 kPa	998.5
5352.9 kPa	998.5
5362.7 kPa	998.5
5370.9 kPa	998.4
5379 kPa	998.5
5388.7 kPa	998.4
5397.1 kPa	998.5
5405.1 kPa	998.5
5413.1 kPa	998.3
5422.9 kPa	998.5
5431 kPa	998.5
5439.2 kPa	998.5
5449.6 kPa	998.4
5457.5 kPa	998.4
5465.6 kPa	998.5
5473.9 kPa	998.4
5483.8 kPa	998.6
5491.6 kPa	998.5
5499.5 kPa	998.6

Source: the NIST ThermoML archive (doi:10.1021/je060271a)
